Experimental data published in ChEMBL document CHEMBL1201862, “PubChem BioAssay data set” (2004).
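In this assay, cells in 96-well plates receive the compound at five concentrations for 48 hours. Endpoints are linearly interpolated between the surrounding concentrations. At the GI50, growth is halved.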 Active and inactive are the calls of the source. Rule as the data show it: active = GI50 up to about 1.1 µM and inactive = higher.

Legend:
Assay in all cases: DTP human tumour cell line panel, 48 h
CCRF-CEM = system: CCRF-CEM
IGROV-1 = system: IGROV-1
MCF7 = system: MCF7
SK-MEL-5 = system: SK-MEL-5
PC-3 = system: PC-3
CAKI-1 = system: CAKI-1
U-251 = system: U-251
BT-549 = system: BT-549
SW-620 = system: SW-620
NCI-H226 = system: NCI-H226
SK-MEL-2 = system: SK-MEL-2
HCT-116 = system: HCT-116
T47D = system: T47D
RXF 393 = system: RXF 393
SNB-75 = system: SNB-75
SK-MEL-28 = system: SK-MEL-28
OVCAR-8 = system: OVCAR-8
HCC 2998 = system: HCC 2998
LOX IMVI = system: LOX IMVI
MDA-MB-231 = system: MDA-MB-231
K562 = system: K562
NCI-H23 = system: NCI-H23
MOLT-4 = system: MOLT-4
SF-268 = system: SF-268
SF-295 = system: SF-295
Hs-578T = system: Hs-578T
HOP-92 = system: HOP-92
Malme-3M = system: Malme-3M
NCI-H522 = system: NCI-H522
UACC-257 = system: UACC-257
NCI-H460 = system: NCI-H460
DU-145 = system: DU-145
A549 = system: A549
HT-29 = system: HT-29
SN12C = system: SN12C
A498 = system: A498
SF-539 = system: SF-539
UO-31 = system: UO-31
786-0 = system: 786-0
HCT-15 = system: HCT-15
ACHN = system: ACHN
SNB-19 = system: SNB-19
RPMI-8226 = system: RPMI-8226
M14 = system: M14
SR = system: SR
KM12 = system: KM12
EKVX = system: EKVX
TK-10 = system: TK-10
OVCAR-4 = system: OVCAR-4
OVCAR-5 = system: OVCAR-5
HOP-62 = system: HOP-62
HL-60 = system: HL-60
OVCAR-3 = system: OVCAR-3
MDA-N = system: MDA-N

SMILES: O=C(O)c1ccc(C2SCc3nc4ccccc4n32)cc1 (configuration not stated)
- GI50 (CCRF-CEM): > 100 µM (inactive)
- GI50 (IGROV-1): > 100 µM (inactive)
- GI50 (MCF7): > 100 µM (inactive)
- GI50 (SK-MEL-5): > 100 µM (inactive)
- GI50 (PC-3): > 100 µM (inactive)
- GI50 (CAKI-1): > 100 µM (inactive)
- GI50 (U-251): > 100 µM (inactive)
- GI50 (BT-549): > 100 µM (inactive)
- GI50 (SW-620): > 100 µM (inactive)
- GI50 (NCI-H226): > 100 µM (inactive)
- GI50 (SK-MEL-2): > 100 µM (inactive)
- GI50 (HCT-116): > 100 µM (inactive)
- GI50 (T47D): > 10 µM (inactive)
- GI50 (RXF 393): > 100 µM (inactive)
- GI50 (SNB-75): > 100 µM (inactive)
- GI50 (SK-MEL-28): > 100 µM (inactive)
- GI50 (OVCAR-8): > 100 µM (inactive)
- GI50 (HCC 2998): > 100 µM (inactive)
- GI50 (LOX IMVI): > 10 µM (inactive)
- GI50 (MDA-MB-231): > 100 µM (inactive)
- GI50 (K562): > 100 µM (inactive)
- GI50 (NCI-H23): > 100 µM (inactive)
- GI50 (MOLT-4): > 100 µM (inactive)
- GI50 (SF-268): > 100 µM (inactive)
- GI50 (SF-295): > 100 µM (inactive)
- GI50 (Hs-578T): > 100 µM (inactive)
- GI50 (HOP-92): > 100 µM (inactive)
- GI50 (Malme-3M): > 100 µM (inactive)
- GI50 (NCI-H522): > 100 µM (inactive)
- GI50 (UACC-257): > 100 µM (inactive)
- GI50 (NCI-H460): > 100 µM (inactive)
- GI50 (DU-145): > 100 µM (inactive)
- GI50 (A549): > 100 µM (inactive)
- GI50 (HT-29): > 100 µM (inactive)
- GI50 (SN12C): > 100 µM (inactive)
- GI50 (A498): > 100 µM (inactive)
- GI50 (SF-539): > 100 µM (inactive)
- GI50 (UO-31): > 100 µM (inactive)
- GI50 (786-0): > 100 µM (inactive)
- GI50 (HCT-15): > 100 µM
- GI50 (ACHN): > 100 µM (inactive)
- GI50 (SNB-19): > 100 µM (inactive)
- GI50 (RPMI-8226): > 100 µM (inactive)
- GI50 (M14): > 100 µM (inactive)
- GI50 (SR): > 100 µM (inactive)
- GI50 (KM12): > 100 µM (inactive)
- GI50 (EKVX): > 100 µM (inactive)
- GI50 (TK-10): > 100 µM (inactive)
- GI50 (OVCAR-4): > 100 µM (inactive)
- GI50 (OVCAR-5): > 100 µM (inactive)
- GI50 (HOP-62): > 100 µM (inactive)
- GI50 (HL-60): > 100 µM (inactive)
- GI50 (OVCAR-3): > 100 µM (inactive)
- GI50 (MDA-N): > 100 µM (inactive)

SMILES: O=C(c1cc(Cl)ccc1Cl)N1CCN(c2ccc(Cl)c(Cl)c2)CC1
- GI50 (CCRF-CEM): 41.6 µM (inactive)
- GI50 (IGROV-1): 39.4 µM (inactive)
- GI50 (MCF7): 8.67 µM (inactive)
- GI50 (SK-MEL-5): 14.6 µM (inactive)
- GI50 (PC-3): 42.8 µM (inactive)
- GI50 (CAKI-1): 35.8 µM (inactive)
- GI50 (U-251): 27.2 µM (inactive)
- GI50 (BT-549): 25.2 µM (inactive)
- GI50 (SW-620): 49.1 µM (inactive)
- GI50 (NCI-H226): 13.6 µM (inactive)
- GI50 (HCT-116): 21 µM (inactive)
- GI50 (T47D): 2.45 µM (inactive)
- GI50 (RXF 393): 15.4 µM (inactive)
- GI50 (SNB-75): 31.1 µM (inactive)
- GI50 (SK-MEL-28): 39.6 µM (inactive)
- GI50 (OVCAR-8): 12.5 µM (inactive)
- GI50 (HCC 2998): 26.7 µM (inactive)
- GI50 (LOX IMVI): 26.4 µM (inactive)
- GI50 (MDA-MB-231): 29.1 µM (inactive)
- GI50 (K562): 18.1 µM (inactive)
- GI50 (NCI-H23): 33.5 µM (inactive)
- GI50 (MOLT-4): 20.6 µM (inactive)
- GI50 (SF-268): 47.2 µM (inactive)
- GI50 (SF-295): 45.4 µM (inactive)
- GI50 (Hs-578T): 45.9 µM (inactive)
- GI50 (HOP-92): 54.2 µM (inactive)
- GI50 (Malme-3M): 17.9 µM (inactive)
- GI50 (NCI-H522): 20.7 µM (inactive)
- GI50 (UACC-257): 29.9 µM (inactive)
- GI50 (NCI-H460): 17 µM (inactive)
- GI50 (DU-145): 61.2 µM (inactive)
- GI50 (A549): 26.9 µM (inactive)
- GI50 (HT-29): 22.8 µM (inactive)
- GI50 (SN12C): 33.3 µM (inactive)
- GI50 (A498): 11.5 µM (inactive)
- GI50 (SF-539): 19.2 µM (inactive)
- GI50 (UO-31): 14.8 µM (inactive)
- GI50 (786-0): 19.7 µM (inactive)
- GI50 (HCT-15): 13.2 µM
- GI50 (ACHN): 47 µM (inactive)
- GI50 (SNB-19): > 10 µM (inactive)
- GI50 (RPMI-8226): 74.6 µM (inactive)
- GI50 (M14): > 10 µM (inactive)
- GI50 (SR): 34.9 µM (inactive)
- GI50 (KM12): 16 µM (inactive)
- GI50 (EKVX): 37.2 µM (inactive)
- GI50 (TK-10): 31.9 µM (inactive)
- GI50 (OVCAR-4): 51.5 µM (inactive)
- GI50 (OVCAR-5): 16.6 µM (inactive)
- GI50 (HOP-62): 67.5 µM (inactive)
- GI50 (HL-60): 76.9 µM (inactive)
- GI50 (OVCAR-3): 31.4 µM (inactive)
- GI50 (MDA-N): 38.1 µM (inactive)
